The results in this text go back to patent publication US20140094465A1, “Compounds as S-Nitrosoglutathione Reductase Inhibitors” (N30 PHARMACEUTICALS, INC., priority 2011, published 2014).

For orientation: IC50 means the concentration needed to halve the response being measured.

Where two headings read alike, the source gives them in different places.

This assay concerns the target T1, S-nitrosoglutathione reductase (GSNOR) (Homo sapiens, UniProt P11766).
T1 construct: made in house; host or cells: E. coli
As to the kind of experiment: GSNOR assay (inhibition of GSNOR activity, NADH absorbance at 340 nm). It is filed as biochemical. As for the experimental part: Various compounds were tested in vitro for their ability to inhibit GSNOR activity.
GSNOR expression and purification is described in Biochemistry 2000, 39, 10720-10729.
Pre-cultures were grown from stabs of a GSNOR glycerol stock in 2XYT media containing 100 ug/ml ampicillin after an overnight incubation at 37° C. […] GSNOR expression was induced with 0.1% arabinose in an overnight incubation at 20° C.
E. coli cell paste was lysed by nitrogen cavitation and the clarified lysate purified by Ni affinity chromatography on an AKTA FPLC (Amersham Pharmacia). The column was eluted in 20 mM Tris pH 8.0/250 mM NaCl with a 0-500 mM imidazole gradient. Eluted GSNOR fractions containing the Smt-GSNOR fusion were digested overnight with Ulp-1 at 4° C. to remove the affinity tag then re-run on the Ni column under the same conditions. GSNOR was recovered in the flowthrough fraction and for crystallography is further purified by Q-Sepharose and Heparin flowthrough chromatography in 20 mM Tris pH 8.0, 1 mM DTT, 10 uM ZnSO4.
GSNOR assay: GSNO and enzyme/NADH Solutions are made up fresh each day. The solutions are filtered and allowed to warm to room temperature. GSNO solution: 100 mM NaPO4 (pH 7.4), 0.480 mM GSNO. 396 μL of GSNO Solution is added to a cuvette followed by 8 μL of test compound in DMSO (or DMSO only for full reaction control) and mixed with the pipette tip. Compounds to be tested are made up at a stock concentration of 10 mM in 100% DMSO. 2 fold serial dilutions are done in 100% DMSO. 8 μL of each dilution are added to an assay so that the final concentration of DMSO in the assay is 1%. The concentrations of compounds tested range from 100 to 0.003 μM. Enzyme/NADH solution: 100 mM NaPO4 (pH 7.4), 0.600 mM NADH, 1.0 μg/mL GSNO Reductase. 396 μL of the Enzyme/NADH solution is added to the cuvette to start the reaction. The cuvette is placed in the Cary 3E UV/Visible Spectrophotometer and the change in 340 nm absorbance/min at 25° C. is recorded for 3 minutes. The assays are done in triplicate for each compound concentration. IC50's for each compound are calculated using the standard curve analysis in the Enzyme Kinetics Module of SigmaPlot.
Final assay conditions: 100 mM NaPO4, pH 7.4, 0.240 mM GSNO, 0.300 mM NADH, 0.5 μg/mL GSNO Reductase, and 1% DMSO. Final volume: 800 μL/cuvette.

Where [1] appears, read: GSNOR inhibitor activity, Tables 1-6, read-out: IC50 range.
Setting [2] is: Table 7, GSNOR inhibition, IC50 range class a/b/c, read-out: IC50.
Where [3] appears, read: Table 8, GSNOR inhibition, IC50 range class a/b/c, read-out: IC50.

T1 sequence (P11766 whole entry): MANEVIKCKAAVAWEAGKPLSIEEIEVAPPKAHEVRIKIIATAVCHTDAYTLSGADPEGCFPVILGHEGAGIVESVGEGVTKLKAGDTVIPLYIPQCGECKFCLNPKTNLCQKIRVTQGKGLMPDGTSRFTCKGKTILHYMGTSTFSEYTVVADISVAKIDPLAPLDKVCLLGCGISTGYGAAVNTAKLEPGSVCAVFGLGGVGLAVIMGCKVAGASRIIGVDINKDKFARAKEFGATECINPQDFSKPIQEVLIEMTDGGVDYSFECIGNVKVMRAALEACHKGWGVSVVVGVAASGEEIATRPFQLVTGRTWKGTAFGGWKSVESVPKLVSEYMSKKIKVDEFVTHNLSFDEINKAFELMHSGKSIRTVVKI

`O=C(O)c1ccc(-c2ccc3c(F)c(O)ccc3n2)c(F)c1` [Compound I-56]: the IC50 under setting [1] was below 100 nM.
On to `O=C(O)c1ccc(-c2ncc(-c3ccc(O)cc3)cn2)cc1` [VII-14, 4-(5-(4-hydroxyphenyl)pyrimidin-2-yl)benzoic acid], for which the IC50 under setting [2] lay in the range of 1000 to 10000 nM.
As to `O=C(O)C1CCN(c2nc3ccc(O)cc3nc2C(F)(F)F)CC1` [II-11], under setting [1], the IC50 is below 100 nM.
In the case of `O=C(O)c1ccc(-c2nnc3cc(O)ccc3n2)c(F)c1` [II-20], the IC50 under setting [1] is below 100 nM.
As for `O=C(O)c1ccc(-c2csc(-c3ccc(O)cc3)c2)s1` [VII-20, 5′-(4-hydroxyphenyl)-[2,3′-bithiophene]-5-carboxylic acid], under setting [2], the IC50 lay in the range of 100 to 1000 nM.
Consider `O=c1c(-c2ccc(-c3nnn[nH]3)cc2)coc2cc(O)ccc12` [IV-44], for which the IC50 under setting [1] was below 100 nM.
With `O=c1nc(-c2ccc(-c3ccc4cc(O)ccc4n3)cc2)s[nH]1` [Compound I-39], the IC50 under setting [1] fell in the range of 100 to 1000 nM.
As to `O=C(O)c1ccc(COc2ccc(O)cc2F)c(F)c1` [VI-19, 3-fluoro-4-((2-fluoro-4-hydroxyphenoxy)methyl)benzoic acid], the IC50 under setting [1] is 100 to 1000 nM.
`Cc1cc(C(=O)O)ccc1-c1cc(F)c2c(F)c(O)ccc2c1` [III-41, 4-(4,5-difluoro-6-hydroxynaphthalen-2-yl)-3-methylbenzoic acid]: under setting [1], the IC50 was below 100 nM.
For the compound `O=C(O)c1ccc(-c2ncc(-c3ccc(O)cc3)s2)s1` [VII-13, 5-(5-(4-hydroxyphenyl)thiazol-2-yl)thiophene-2-carboxylic acid], the IC50 under setting [2] lay within 100 to 1000 nM.
In the case of `O=C(O)c1ccc(-c2nc3ccc(O)cc3s2)cc1` [VIII-7, 4-(6-hydroxybenzo[d]thiazol-2-yl)benzoic acid], under setting [3], the IC50 fell in the range of 100 to 1000 nM.
As for `O=c1[nH]c(-c2ccc(-c3c(C(F)(F)F)oc4cc(O)ccc4c3=O)cc2)ns1` [IV-33], the half-maximal inhibitory concentration (IC50) under setting [1] was below 100 nM.
`CC(C)OCCCn1c(-c2ccc(O)cc2)ccc1-c1ccc(C(=O)O)cc1` [VII-31, 4-(5-(4-hydroxyphenyl)-1-(3-isopropoxypropyl)-1H-pyrrol-2-yl)benzoic acid]: under setting [2], the IC50 was below 100 nM.
`O=c1c2ccc(O)cc2cc(C(F)(F)F)n1[C@H]1CC[C@H](C(=O)O)CC1` [VIII-15, (trans)-4-(6-hydroxy-1-oxo-3-(trifluoromethyl)isoquinolin-2(1H)-yl)cyclohexanecarboxylic acid]: the concentration for half-maximal inhibition (IC50) under setting [3] was below 100 nM.
Consider `O=C(O)c1ccc(-c2ccc3cc(O)ccc3c2)c(C(F)(F)F)c1` [III-20, 4-(6-hydroxynaphthalen-2-yl)-3-(trifluoromethyl)benzoic acid], for which the concentration for half-maximal inhibition (IC50) under setting [1] is below 100 nM.
On to `O=C(O)c1ccc(-c2csc(-c3ccc(O)c(F)c3)n2)cc1` [VII-6, 4-(2-(3-fluoro-4-hydroxyphenyl)thiazol-4-yl)benzoic acid], for which, under setting [2], the IC50 fell in the range of 100 to 1000 nM.
Consider `O=C(O)c1ccc(Oc2c(C(F)(F)F)oc3cc(O)ccc3c2=O)cc1O` [Compound V-13, 2-hydroxy-4-(7-hydroxy-4-oxo-2-(trifluoromethyl)-4H-chromen-3-yloxy)benzoic acid], for which the IC50 under setting [1] lay in the range of 100 to 1000 nM.
Take `O=C(O)[C@H]1CC[C@H](c2nc3ccc(O)cc3cc2Cl)CC1` [Compound I-35]: under setting [1], the IC50 fell in the range of 100 to 1000 nM.
As to `O=[N+]([O-])c1cc(-c2ccc3cc(O)ccc3c2)ccc1O` [III-36, 6-(4-hydroxy-3-nitrophenyl)naphthalen-2-ol], under setting [1], the half-inhibitory concentration (IC50) fell in the range of 100 to 1000 nM.
As for `Oc1ccc2nc(-c3ccc(-c4nn[nH]n4)cc3Cl)ccc2c1` [Compound I-23], under setting [1], the IC50 was below 100 nM.
On to `CCOc1cc(-c2c(C(F)(F)F)oc3cc(O)ccc3c2=O)cc([N+](=O)[O-])c1O` [IV-46, 3-(3-ethoxy-4-hydroxy-5-nitrophenyl)-7-hydroxy-2-(trifluoromethyl)-4H-chromen-4-one], for which the IC50 under setting [1] is below 100 nM.
In the case of `O=C(O)c1ccc(-c2ncc3cc(O)ccc3n2)cc1` [II-1], the concentration for half-maximal inhibition (IC50) under setting [1] was below 100 nM.
`O=C(O)c1ccc(CC(=O)c2ccc(O)cc2Cl)c(F)c1` [VI-6, 4-(2-(2-chloro-4-hydroxyphenyl)-2-oxoethyl)-3-fluorobenzoic acid]: under setting [1], the 50% inhibitory concentration (IC50) is below 100 nM.
As for `CC1Cc2cc(O)ccc2C(=O)N1[C@H]1CC[C@H](C(=O)O)CC1` (stereo partly drawn) [VIII-17, (trans)-4-(6-hydroxy-3-methyl-1-oxo-3,4-dihydroisoquinolin-2(1H)-yl)cyclohexanecarboxylic acid], under setting [3], the IC50 was in the range of 1000 to 10000 nM.
Turning to `CC(C)CCCn1c(-c2ccc(O)cc2)ccc1-c1ccc(C(=O)O)cc1` [VII-30, 4-(5-(4-hydroxyphenyl)-1-(4-methylpentyl)-1H-pyrrol-2-yl)benzoic acid], under setting [2], the IC50 was below 100 nM.
For the compound `O=C(O)c1ccc(CCC(=O)c2ccc(O)cc2)cc1` [VI-30, 4-(3-(4-hydroxyphenyl)-3-oxopropyl)benzoic acid], the IC50 under setting [1] was 1000 to 10000 nM.
`COc1cc(C(=O)O)ccc1-c1ccc2cc(O)ccc2c1` [III-3]: the IC50 under setting [1] is below 100 nM.
Turning to `O=C(O)c1ccc(C[S+]([O-])c2ccc(O)cc2)c(F)c1` (stereo not drawn) [VI-25, 3-fluoro-4-(((4-hydroxyphenyl)sulfinyl)methyl)benzoic acid], under setting [1], the IC50 fell in the range of 100 to 1000 nM.
For the compound `Cc1cc2cc(O)ccc2c(=O)n1[C@H]1CC[C@H](C(=O)O)CC1` [VIII-12, (trans)-4-(6-hydroxy-3-methyl-1-oxoisoquinolin-2(1H)-yl)cyclohexanecarboxylic acid], the 50% inhibitory concentration (IC50) under setting [3] fell in the range of 100 to 1000 nM.
`Cn1c(-c2ccc(O)cc2)ccc1-c1ccc(C(=O)O)s1` [VII-24, 5-(5-(4-hydroxyphenyl)-1-methyl-1H-pyrrol-2-yl)thiophene-2-carboxylic acid]: the IC50 under setting [2] lay within 100 to 1000 nM.
For the compound `O=C(O)c1ccc(CC(=O)c2ccc(O)c(F)c2O)c(F)c1` [VI-27, 3-fluoro-4-(2-(3-fluoro-2,4-dihydroxyphenyl)-2-oxoethyl)benzoic acid], under setting [1], the concentration for half-maximal inhibition (IC50) was in the range of 100 to 1000 nM.
On to `O=C(O)c1ccc(-c2ccc3cc(O)ccc3c2)c(N2CCOCC2)c1` [III-10], for which the IC50 under setting [1] lay within 100 to 1000 nM.
Consider `O=C(O)c1ccc(CS(=O)(=O)c2ccc(O)cc2)c(F)c1` [VI-26, 3-fluoro-4-(((4-hydroxyphenyl)sulfonyl)methyl)benzoic acid], for which the IC50 under setting [1] was below 100 nM.
Consider `O=C(O)c1ccc(-c2ccc(-c3ccc(O)cc3)cc2)cc1` [VII-11, 4″-hydroxy-[1,1′:4′,1″-terphenyl]-4-carboxylic acid], for which the concentration for half-maximal inhibition (IC50) under setting [2] lay in the range of 100 to 1000 nM.
For `CN(c1ccc(C(=O)O)cc1)c1c(C(F)(F)F)oc2cc(O)ccc2c1=O` [Compound V-14, 4-((7-hydroxy-4-oxo-2-(trifluoromethyl)-4H-chromen-3-yl)(methyl)amino)benzoic acid], the 50% inhibitory concentration (IC50) under setting [1] is 1000 to 10000 nM.
Turning to `CCOCCn1c(-c2ccc(O)cc2)ccc1-c1ccc(C(=O)O)cc1` [VII-35, 4-(1-(2-ethoxyethyl)-5-(4-hydroxyphenyl)-1H-pyrrol-2-yl)benzoic acid], under setting [2], the IC50 was below 100 nM.
Turning to `O=C(NO)c1ccc(-c2c(C(F)(F)F)oc3cc(O)ccc3c2=O)cc1` [IV-37], under setting [1], the concentration for half-maximal inhibition (IC50) lay in the range of 100 to 1000 nM.
As to `O=C(O)c1ccc(CC(=O)c2ccc(O)c(F)c2)c(F)c1` [VI-4, 3-fluoro-4-(2-(3-fluoro-4-hydroxyphenyl)-2-oxoethyl)benzoic acid], the IC50 under setting [1] was below 100 nM.
In the case of `O=c1nc(-c2ccc(-c3ccc4cc(O)ccc4n3)cc2)[nH]o1` [Compound I-12], the IC50 under setting [1] was below 100 nM.
For `O=C(O)c1ccc(N2CCc3cc(O)ccc3C2)cc1` [VIII-6, 4-(6-hydroxy-3,4-dihydroisoquinolin-2(1H)-yl)benzoic acid], the IC50 under setting [3] was in the range of 1000 to 10000 nM.
On to `CC(C)CCn1c(-c2ccc(O)cc2)ccc1-c1ccc(C(=O)O)s1` [VII-27, 5-(5-(4-hydroxyphenyl)-1-isopentyl-1H-pyrrol-2-yl)thiophene-2-carboxylic acid], for which, under setting [2], the IC50 was below 100 nM.
Consider `Cc1cc2cc(O)ccc2nc1-c1ccc(C(=O)O)cc1` [Compound I-1], for which the IC50 under setting [1] is below 100 nM.
For `COc1cc(Oc2c(C(F)(F)F)oc3cc(O)ccc3c2=O)ccc1C(=O)O` [Compound V-5], under setting [1], the IC50 lay in the range of 1000 to 10000 nM.
For the compound `O=C(O)c1ccc(CC(=O)c2ccc(O)c(F)c2F)cc1` [VI-5, 4-(2-(2,3-difluoro-4-hydroxyphenyl)-2-oxoethyl)benzoic acid], under setting [1], the IC50 was below 100 nM.
Regarding `O=c1c(Oc2ccc(O)c([N+](=O)[O-])c2)c(C(F)(F)F)oc2cc(O)ccc12` [Compound V-17, 7-hydroxy-3-(4-hydroxy-3-nitrophenoxy)-2-(trifluoromethyl)-4H-chromen-4-one], the IC50 under setting [1] lay within 100 to 1000 nM.
